In paper PMC6108078 (Chemical research in toxicology, 2018):
Values joined by “and” are separate entries in the source; they are usually repeats but may differ in a detail not shown here. Equal values may be shown once. Read-outs that look alike come from different tables or passages of the source.

Columns and labels:
[1] = cited from earlier work
[2] = monkeys administered [14C]sunitinib L-malate; ref sunitinib NDA document, 9; cited from earlier work
P450 3A4 = P450 3A4 (Homo sapiens, UniProt P08684); assay: Kinetics of sunitinib metabolite formation by recombinant P450 3A4; format: in vitro ADME; details: sunitinib N-deethylation (M1 formation), recombinant enzymes
P450 3A4, sequence (P08684 whole entry): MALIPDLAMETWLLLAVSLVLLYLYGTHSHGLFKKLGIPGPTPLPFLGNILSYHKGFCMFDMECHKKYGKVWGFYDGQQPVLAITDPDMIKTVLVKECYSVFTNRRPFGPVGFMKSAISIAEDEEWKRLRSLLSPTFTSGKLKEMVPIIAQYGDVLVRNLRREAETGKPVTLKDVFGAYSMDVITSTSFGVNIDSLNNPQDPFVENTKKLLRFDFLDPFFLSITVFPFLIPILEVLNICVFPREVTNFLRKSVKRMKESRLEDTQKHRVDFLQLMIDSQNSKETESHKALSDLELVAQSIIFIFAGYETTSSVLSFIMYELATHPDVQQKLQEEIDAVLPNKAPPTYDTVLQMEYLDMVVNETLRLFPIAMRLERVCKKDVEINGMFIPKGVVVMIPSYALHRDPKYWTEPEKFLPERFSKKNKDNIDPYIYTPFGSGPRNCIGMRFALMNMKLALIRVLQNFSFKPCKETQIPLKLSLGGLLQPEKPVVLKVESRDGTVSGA

[3] = format: in vitro ADME, human
[4] = mass balance studies in humans; cited from earlier work
[5] = for decrease of M5 formation compared to vehicle control: furafylline 25 μM, quinidine 2 μM
[6] = patients taking sunitinib; cited from earlier work
HepG2 cells = details: treatment of HepG2 cells; cited from earlier work
[7] = GSH trapping in pooled human liver microsomes; format: in vitro ADME; details: microsomal incubations in the absence of NADPH supplementation
[8] = in the absence of dGSH, sunitinib 25 μM, 1 mg/mL, 30 min
[9] = in the presence of dGSH (1 mM), sunitinib 25 μM, 1 mg/mL, 30 min
[10] = sunitinib 10 μM, 0.1 mg/mL, GSH 5 mM, 10 min, ketoconazole 1 μM, CYP3cide 2 μM, mean ± SD, n = 3

For CCNCCNC(=O)c1c(C)[nH]c(/C=C2\C(=O)Nc3ccc(F)cc32)c1C [M1, N-desethylsunitinib], the “activity relative to parent drug” value [1] is listed as “equal to that of the parent drug”, the “share of the total radioactivity recovered in feces” value [2] is listed as 20–40% and the “fold higher efficiency (kcat/Km) of P450 3A4 compared to P450 1A2” value (P450 3A4) is listed as roughly 5 fold. The “M1 share of the metabolic turnover of sunitinib” value [3, 8] was 70%, the “ratio of M1 to sunitinib UV peak area” value [3, 8] was 0.70 and the “M1 share of the metabolic turnover of sunitinib” value [3, 9] was 41%. The “ratio of M1 to sunitinib (UV peak area at 420–440 nm)” value [3, 9] was 0.41, the “M1 share of sunitinib metabolic turnover in human liver microsomes” value ([3]; summary statement in discussion) was no less than 41% and the “fold higher M1 levels in the absence of dGSH compared to in the presence of dGSH” value ([3]; sunitinib 25 μM, 1 mg/mL, 30 min, UV absorbance peak area at 430 nm, n = 2-3) was 2.5 fold. The “share of the total dose” value [4] was 32–52%.

For O=c1cc(-c2ccccc2)oc2c1ccc1ccccc12 [α-naphthoflavone], the “effect on formation of M3 and M5” value ([5]; initial experiments, coincubation with sunitinib, data not shown) was “significantly increased” and the “increase of M3 levels compared to control” value ([5]; sunitinib 10 μM, 0.1 mg/mL, GSH 5 mM, 10 min, α-naphthoflavone 1 μM, mean ± SD, n = 3) was 41 ± 17%.

In the case of CC(=O)N1CCN(c2ccc(OCC3COC(Cn4ccnc4)(c4ccc(Cl)cc4Cl)O3)cc2)CC1 (centres unmarked) [ketoconazole], the “decrease of M5 formation compared to vehicle control” value [5, 10] is reported as 52 ± 4%, the “decrease of M1 levels compared to vehicle control” value [5, 10] is reported as 88% and 88 ± 5% and the “decrease of M3 levels compared to control” value [5, 10] is reported as 40 ± 9%.

For CCN(CC)CCNC(=O)c1c(C)[nH]c(/C=C2\C(=O)Nc3ccc(F)cc32)c1C [sunitinib], the “occurrence of clinically significant liver injury” value [6] is given as 3–4 % of patients, the “occurrence of liver failure” value [6] is given as 0.3 % of patients and the hepatocellular toxicity effects (HepG2 cells) is given as “increase the production of reactive oxygen species, disrupt the mitochondrial membrane potential, deplete glutathione content, and induce apoptosis in a concentration-dependent manner”. The “direct GSH conjugation of parent drug (Sun–SG)” value [7] was “evidence for the direct conjugation of GSH to the parent drug”.

In the case of Cc1nc2c([nH]1)c(=O)n(C)c(=O)n2Cc1ccco1 [furafylline], the “decrease of M5 formation compared to vehicle control” value [5, 10] is reported as 62% and 62 ± 17%.
